Legend:
[1] = species on record: Rattus norvegicus; assay: Selectivity index, ratio of IC50 for Wistar rat kidney ALR1 to IC50 for Wistar rat lens ALR2
[2] = target: Aldo-keto reductase family 1 member A1 (Rattus norvegicus, UniProt P51635); assay: Inhibition of Wistar rat kidney ALR1 using sodium D-glucuronate as substrate preincubated for 10 mins followed by substrate addition and measured for 4 mins by spectrophotometric method
[3] = target: Aldo-keto reductase family 1 member B1 (Rattus norvegicus, UniProt P07943); assay: Inhibition of Wistar rat lens ALR2 using L-glyceraldehyde as substrate preincubated for 10 mins followed by substrate addition and measured for 4 mins by spectrophotometric method
[4] = Antioxidant activity assessed as DPPH radical scavenging activity at 10 uM relative to control; assay type: functional
[5] = tested on: Brain; assay: Antioxidant activity in rat brain homogenate assessed as inhibition of FeCl2/ascorbic acid-induced lipid peroxidation by measuring reduction in TBARS level at 100 uM measured after 30 mins by spectrophotometric method relative to control; assay type: functional, tissue-based
[6] = Octanol-buffer partition coefficient, log D of the compound at pH 7.4 measured after 24 hrs by HPLC based shake flask assay; assay type: physicochemical
[7] = Antioxidant activity assessed as DPPH radical scavenging activity at 50 uM relative to control; assay type: functional
[8] = Antioxidant activity assessed as DPPH radical scavenging activity at 5 uM relative to control; assay type: functional
[9] = Antioxidant activity assessed as DPPH radical scavenging activity at 100 uM relative to control; assay type: functional
[10] = target: Aldo-keto reductase family 1 member B1 (Rattus norvegicus) (UniProt P07943); assay: Inhibition of Wistar rat lens ALR2 at 100 uM using L-glyceraldehyde as substrate preincubated for 10 mins followed by substrate addition and measured for 4 mins by spectrophotometric method relative to control
[11] = tested on: Brain; assay: Antioxidant activity in rat brain homogenate assessed as inhibition of FeCl2/ascorbic acid-induced lipid peroxidation by measuring reduction in TBARS level at 50 uM measured after 30 mins by spectrophotometric method relative to control; assay type: functional, tissue-based
[12] = Antioxidant activity assessed as DPPH radical scavenging activity at 1 uM relative to control; assay type: functional
[13] = target: Aldo-keto reductase family 1 member B1 (Rattus norvegicus) (UniProt P07943); assay: Inhibition of Wistar rat lens ALR2 at 10 uM using L-glyceraldehyde as substrate preincubated for 10 mins followed by substrate addition and measured for 4 mins by spectrophotometric method relative to control

Chain of Aldo-keto reductase family 1 member A1 (P51635 whole entry, looked up): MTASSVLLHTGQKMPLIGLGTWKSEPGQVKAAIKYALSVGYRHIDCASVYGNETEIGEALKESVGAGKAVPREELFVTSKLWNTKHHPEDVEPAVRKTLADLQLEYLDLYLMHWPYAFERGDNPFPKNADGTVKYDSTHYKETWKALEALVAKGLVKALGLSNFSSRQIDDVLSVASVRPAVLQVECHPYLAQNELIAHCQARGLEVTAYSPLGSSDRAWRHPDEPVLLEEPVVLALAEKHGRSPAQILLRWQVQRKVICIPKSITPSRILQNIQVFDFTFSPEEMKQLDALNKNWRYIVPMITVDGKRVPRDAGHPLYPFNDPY

Compound: COc1ccc(/C=C/c2nc3ccccc3n(CC(=O)NS(=O)(=O)C(F)(F)F)c2=O)cc1OC
- Ratio IC50 [1]: 2.67
- IC50 [2]: 42.5 µM
- IC50 [3]: 15.9 µM

Compound: O=C(O)Cn1c(=O)c(/C=C/c2ccc(O)c(O)c2)nc2ccccc21
- Activity [4]: 46%
- inhibition [5]: 59.5%
- logD at 24 h [6]: -2.59
- Activity [7]: 89.2%
- Activity [8]: 21.8%
- Activity [9]: 95.4%

Compound: CS(=O)(=O)NC(=O)Cn1c(=O)c(-c2ccccc2)nc2ccccc21
- inhibition [10]: 35.9%

Compound: Cc1c(C)c2c(c(C)c1O)CCC(C)(C(=O)O)O2 (stereo not given)
- Activity [4]: 77.9%
- inhibition [5]: 74.1%
- inhibition [11]: 36.6%
- Activity [12]: 8.2%
- Activity [7]: 94.7%
- Activity [8]: 39.3%
- Activity [9]: 96.5%

Compound: NC(=O)Cn1c(=O)c(/C=C/c2ccc(F)cc2)nc2ccccc21
- inhibition [13]: 26.5%

Compound: O=C(Cn1c(=O)c(-c2ccc(O)c(O)c2)nc2ccccc21)NS(=O)(=O)C(F)(F)F
- Activity [4]: 81.4%
- inhibition [5]: 58.7%
- Ratio IC50 [1]: 12.5
- IC50 [2]: 57.9 µM
- Activity [12]: 6.8%
- Activity [7]: 89.6%
- Activity [8]: 46%
- Activity [9]: 92.3%
- IC50 [3]: 4.64 µM

Compound: COc1ccc(-c2nc3ccccc3n(CC(=O)NS(=O)(=O)C(F)(F)F)c2=O)cc1OC
- IC50 [3]: 38.7 µM

Compound: O=C(Cn1c(=O)c(/C=C/c2ccccc2)nc2ccccc21)NS(=O)(=O)C(F)(F)F
- Activity [4]: 6.4%
- inhibition [5]: 20.6%
- Ratio IC50 [1]: 4.68
- IC50 [2]: 29.9 µM
- logD at 24 h [6]: 2.88
- Activity [7]: 35.1%
- Activity [9]: 58.5%
- IC50 [3]: 6.38 µM

Compound: O=C(Cn1c(=O)c(Oc2ccccc2)nc2ccccc21)NS(=O)(=O)C(F)(F)F
- IC50 [3]: 54 µM

Compound: O=C(Cn1c(=O)c(Oc2ccc(Br)cc2)nc2ccccc21)NS(=O)(=O)C(F)(F)F
- IC50 [3]: 74.7 µM

Compound: O=C(Cn1c(=O)c(/C=C/c2ccc(O)cc2)nc2ccccc21)NS(=O)(=O)C(F)(F)F
- Activity [4]: 13.2%
- inhibition [5]: 38.6%
- Ratio IC50 [1]: 44.2
- IC50 [2]: 27.7 µM
- logD at 24 h [6]: 1.73
- Activity [7]: 38.9%
- Activity [9]: 56.2%
- IC50 [3]: 0.627 µM

Compound: O=C(O)Cn1c(=O)c(/C=C/c2ccc(O)cc2)nc2ccccc21
- logD at 24 h [6]: -1.63

Compound: NC(=O)Cn1c(=O)c(/C=C/c2ccccc2)nc2ccccc21
- inhibition [13]: 24.6%

Compound: O=C(Cn1c(=O)c(-c2ccc(O)cc2)nc2ccccc21)NS(=O)(=O)C(F)(F)F
- IC50 [3]: 23.6 µM

Compound: CS(=O)(=O)NC(=O)Cn1c(=O)c(/C=C/c2ccccc2)nc2ccccc21
- IC50 [3]: 35.2 µM

Compound: COc1ccc(Oc2nc3ccccc3n(CC(=O)NS(=O)(=O)C(F)(F)F)c2=O)cc1
- IC50 [3]: 55.1 µM

Compound: CS(=O)(=O)NC(=O)Cn1c(=O)c(Oc2ccccc2)nc2ccccc21
- inhibition [10]: 41.7%

Compound: O=C(Cn1c(=O)c(Oc2ccc(O)cc2)nc2ccccc21)NS(=O)(=O)C(F)(F)F
- inhibition [5]: 12.3%
- Ratio IC50 [1]: 7.26
- IC50 [2]: 73.6 µM
- Activity [9]: 8.1%
- IC50 [3]: 10.1 µM

Compound: COc1cc(/C=C/c2nc3ccccc3n(CC(=O)NS(=O)(=O)C(F)(F)F)c2=O)ccc1O
- Activity [4]: 52.2%
- inhibition [5]: 61.9%
- Ratio IC50 [1]: 7.3
- IC50 [2]: 23.9 µM
- logD at 24 h [6]: 1.05
- Activity [7]: 81.9%
- Activity [8]: 27.7%
- Activity [9]: 89.8%
- IC50 [3]: 3.27 µM

Compound: COc1cc(/C=C/c2nc3ccccc3n(CC(=O)O)c2=O)ccc1O
- Activity [4]: 44.4%
- inhibition [5]: 56.1%
- logD at 24 h [6]: -2.66
- Activity [7]: 73.6%
- Activity [8]: 21.1%
- Activity [9]: 94%

Compound: O=C(Cn1c(=O)c(Oc2ccc(Cl)cc2)nc2ccccc21)NS(=O)(=O)C(F)(F)F
- IC50 [3]: 40.6 µM

Compound: O=C(Cn1c(=O)c(-c2ccc(C(F)(F)F)cc2)nc2ccccc21)NS(=O)(=O)C(F)(F)F
- IC50 [3]: 34 µM

Compound: O=C(O)Cn1c(=O)c(/C=C/c2ccccc2)nc2ccccc21
- logD at 24 h [6]: 0.05

Compound: O=C(Cn1c(=O)c(/C=C/c2ccc(O)c(O)c2)nc2ccccc21)NS(=O)(=O)C(F)(F)F
- Activity [4]: 82.1%
- inhibition [5]: 73.5%
- Ratio IC50 [1]: 91.6
- IC50 [2]: 9.16 µM
- inhibition [11]: 39%
- Activity [12]: 11%
- logD at 24 h [6]: -1.08
- Activity [8]: 51.9%
- IC50 [3]: 0.1 µM

Compound: O=C(Cn1c(=O)c(-c2ccccc2)nc2ccccc21)NS(=O)(=O)C(F)(F)F
- IC50 [3]: 75.2 µM

Compound: O=C(Cn1c(=O)c(Oc2ccc(F)cc2)nc2ccccc21)NS(=O)(=O)C(F)(F)F
- IC50 [3]: 38.1 µM

Compound: O=C(Cn1c(=O)c(-c2ccc(F)cc2)nc2ccccc21)NS(=O)(=O)C(F)(F)F
- IC50 [3]: 71.9 µM

Compound: O=C(Cn1c(=O)c(/C=C/c2ccc(F)cc2)nc2ccccc21)NS(=O)(=O)C(F)(F)F
- Ratio IC50 [1]: 2.05
- IC50 [2]: 29.2 µM
- IC50 [3]: 14.3 µM

Source: ChEMBL document CHEMBL4400570, “Designing of acyl sulphonamide based quinoxalinones as multifunctional aldose reductase inhibitors” (Bioorg Med Chem, 2019)
